Patent US8338565B2, “Macrocyclic compounds for inhibition of tumor necrosis factor alpha” (Ensemble Therapeutics Corporation, priority 2008, dated 2012)
Numbered stars: 1 amine (or outer) side, 2 acyl side, 3 side chain; on linkers, the order of the positions; unused ones are H or OH. Bridge positions count the residues as written; N and C are the ends. Square brackets hold non-standard residues; d marks the D form. Peptide text beside a SMILES is read from it. Bip = N[C@@H](Cc1ccc(-c2ccccc2)cc1)C(=O)O; Phe(4-NH2) = Nc1ccc(C[C@H](N)C(=O)O)cc1; d(hPhe) = N[C@H](CCc1ccccc1)C(=O)O; Suc = O=C(CCC(=O)[*:2])[*:1]

Tests used:
[1] = biological target: T1, TNFα / TNFα receptor (TNFα R1/Fc) (Homo sapiens, UniProt P01375); assay: Inhibition of binding of TNFα to the TNFα receptor (plate ELISA competition); details: Table 2; read-out: Activity (IC50, inhibition of TNFα binding to TNFα R1/Fc)
T1 construct: purchased R&D Systems
T1 sequence (P01375 77-233 limits assumed, species assumed): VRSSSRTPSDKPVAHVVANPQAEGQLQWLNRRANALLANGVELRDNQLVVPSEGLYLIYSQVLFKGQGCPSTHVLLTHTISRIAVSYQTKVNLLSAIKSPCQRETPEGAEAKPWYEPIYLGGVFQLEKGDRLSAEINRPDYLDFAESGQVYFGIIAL
Procedure, shortened: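 Compound dilutions were preincubated 30 min at RT with 8.33 nM TNFα R1/Fc in PBST with 2% DMSO, then added to wells coated with 15 nM TNFα for 30 min. Bound receptor was detected with HRP anti-human Fc and TMB, read as A450.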

rat paw edema model = assay: Rat paw edema model (carrageenan), anti-inflammatory activity; format: in vivo, Sprague-Dawley (SD) rats

O=C1CCC(=O)N[C@H](CCc2ccccc2)C(=O)N[C@@H](Cc2ccc(-c3ccccc3)cc2)C(=O)N[C@H](Cc2ccccc2)C(=O)N[C@H](C(=O)N[C@@H](Cc2ccccc2)C(=O)O)Cc2ccc(cc2)N1 [Compound 202] ([d(hPhe)][Bip][dF][Phe(4-NH2)]F-OH; linker N-4 via Suc)
IC50 [1]: < 10 µM
Change in Paw Volume (rat paw edema model; Table 3, 0.3 mg/kg IV, 2 h post-carrageenan): 0.42 ± 0.20 mL
Change in Paw Volume (rat paw edema model; Table 3, 0.3 mg/kg IV, 4 h post-carrageenan): 1.01 ± 0.31 mL
Change in Paw Volume (rat paw edema model; Table 3, 0.3 mg/kg IV, 6 h post-carrageenan): 1.16 ± 0.20 mL
Change in Paw Volume (rat paw edema model; Table 9, 0.05 mg/kg IV, 2 h post-carrageenan): 1.20 ± 0.09 mL
Change in Paw Volume (rat paw edema model; Table 9, 0.05 mg/kg IV, 4 h post-carrageenan): 1.56 ± 0.22 mL
Change in Paw Volume (rat paw edema model; Table 9, 0.05 mg/kg IV, 6 h post-carrageenan): 1.67 ± 0.18 mL
Change in Paw Volume (rat paw edema model; Table 9, 0.1 mg/kg IV, 2 h post-carrageenan): 0.99 ± 0.15 mL
Change in Paw Volume (rat paw edema model; Table 9, 0.1 mg/kg IV, 4 h post-carrageenan): 1.41 ± 0.26 mL
Change in Paw Volume (rat paw edema model; Table 9, 0.1 mg/kg IV, 6 h post-carrageenan): 1.62 ± 0.19 mL
Change in Paw Volume (rat paw edema model; Table 9, 0.3 mg/kg IV, 2 h post-carrageenan): 0.70 ± 0.13 mL
Change in Paw Volume (rat paw edema model; Table 9, 0.3 mg/kg IV, 4 h post-carrageenan): 1.09 ± 0.06 mL
Change in Paw Volume (rat paw edema model; Table 9, 0.3 mg/kg IV, 6 h post-carrageenan): 1.15 ± 0.12 mL
Change in Paw Volume (rat paw edema model; Table 9, 1.0 mg/kg IV, 2 h post-carrageenan): 0.60 ± 0.04 mL
Change in Paw Volume (rat paw edema model; Table 9, 1.0 mg/kg IV, 4 h post-carrageenan): 0.98 ± 0.08 mL
Change in Paw Volume (rat paw edema model; Table 9, 1.0 mg/kg IV, 6 h post-carrageenan): 1.14 ± 0.05 mL
Change in Paw Volume (rat paw edema model; Table 9, 10 mg/kg PO (suspension in Vehicle A), 2 h post-carrageenan): 1.12 ± 0.15 mL
Change in Paw Volume (rat paw edema model; Table 9, 10 mg/kg PO (suspension in Vehicle A), 4 h post-carrageenan): 1.35 ± 0.27 mL
Change in Paw Volume (rat paw edema model; Table 9, 10 mg/kg PO (suspension in Vehicle A), 6 h post-carrageenan): 1.42 ± 0.22 mL
Change in Paw Volume (rat paw edema model; Table 10, 0.3 mg/kg PO, 2 h post-carrageenan): 1.49 ± 0.14 mL
Change in Paw Volume (rat paw edema model; Table 10, 0.3 mg/kg PO, 4 h post-carrageenan): 1.59 ± 0013 mL
Change in Paw Volume (rat paw edema model; Table 10, 0.3 mg/kg PO, 6 h post-carrageenan): 1.65 ± 0.10 mL
Change in Paw Volume (rat paw edema model; Table 10, 1.0 mg/kg PO, 2 h post-carrageenan): 1.43 ± 0.18 mL
Change in Paw Volume (rat paw edema model; Table 10, 1.0 mg/kg PO, 4 h post-carrageenan): 1.45 ± 0.16 mL
Change in Paw Volume (rat paw edema model; Table 10, 1.0 mg/kg PO, 6 h post-carrageenan): 1.62 ± 0.14 mL
Change in Paw Volume (rat paw edema model; Table 10, 3.0 mg/kg PO, 4 h post-carrageenan): 1.42 ± 0.09 mL
Change in Paw Volume (rat paw edema model; Table 10, 3.0 mg/kg PO, 6 h post-carrageenan): 1.50 ± 0.09 mL
Change in Paw Volume (rat paw edema model; Table 10, 10 mg/kg PO, 2 h post-carrageenan): 1.17 ± 0.17 mL
Change in Paw Volume (rat paw edema model; Table 10, 10 mg/kg PO, 4 h post-carrageenan): 1.29 ± 0.06 mL
Change in Paw Volume (rat paw edema model; Table 10, 10 mg/kg PO, 6 h post-carrageenan): 1.51 ± 0.06 mL
